# Assay results reported in ChEMBL document CHEMBL5338766, “X-ray Crystal Structure-Guided Discovery of Novel Indole Analogues as Colchicine-Binding Site Tubulin Inhibitors with Immune-Potentiating and Antitumor Effects against Melanoma” (J Med Chem, 2023).
# pIC50: −log10 of the molar value. Active and inactive are the calls of the source. The calls are words filed in the database; no cut-off is given here.
# Legend:
# [1] = Cmax in Sprague-Dawley rat at 20 mg/kg, po measured upto 12 hrs by UPLC-MS/ESI analysis; assay type: ADME, organism-based; design: time < 12 hrs, dose 20 mg/kg, route po; conditions: in vivo
# [2] = Toxicity in C57 mouse implanted with mouse B16-F10 cells assessed as pathological changes in liver at 2.5 mg/kg, ip administered every day for 14 days in the presence of NP19 by H&E staining based microscopic analysis; assay type: organism-based; conditions: in vivo, 336 h, time 14 day
# [3] = AUC(0 to infinity) in Sprague-Dawley rat at 2 mg/kg, iv measured upto 12 hrs by UPLC-MS/ESI analysis; assay type: ADME, organism-based; design: dose 2 mg/kg, time < 12 hrs, route iv; conditions: in vivo
# B16-F10 [4] = assay: Antitumor immunity in C57 mouse implanted with mouse B16-F10 cells assessed as increase in CD3+ CD8+ cytotoxic T cells in tumor at 5 mg/kg, ip administered every day for 14 days by flow cytometric analysis (reference value: 0.340%); assay type: functional; conditions: time 14 day
# HUVEC = assay: Disruption of vasculature in HUVEC cells assessed as interruption of capillary like networks incubated for 6 hrs by phase contrast microscopic analysis; assay type: functional, cell-based; conditions: Homo sapiens, dose 0.5-5 nM
# B16-F10 [5] = assay: Antitumor immunity in C57 mouse implanted with mouse B16-F10 cells assessed as increase in CD3+ CD4+ helper T cells in tumor at 2.5 mg/kg, ip administered every day for 14 days in the presence of NP19 by flow cytometric analysis (reference value: 0.332%); assay type: functional; conditions: time 14 day
# [6] = Tmax in Sprague-Dawley rat at 20 mg/kg, po measured upto 12 hrs by UPLC-MS/ESI analysis; assay type: ADME, organism-based; conditions: in vivo
# [7] = Acute toxicity in C57 mouse assessed as survival rate at 80 mg/kg, po administered daily for 14 days relative to control; assay type: organism-based; conditions: in vivo, time 14 day, read-out: Activity
# [8] = AUC(0 to t) in Sprague-Dawley rat at 2 mg/kg, iv measured upto 12 hrs by UPLC-MS/ESI analysis; assay type: ADME, organism-based; design: time < 12 hrs, dose 2 mg/kg, route iv; conditions: in vivo
# HeLa = assay: Antiproliferative activity against human HeLa cells assessed as inhibition of cell proliferation incubated for 48 hrs by MTT assay; assay type: functional, cell-based
# B16-F10 [9] = assay: Antitumor activity against mouse B16-F10 cells implanted in C57 mouse assessed as reduction in tumor volume at 2.5 mg/kg, ip administered every day for 14 days in the presence of NP19; assay type: functional, organism-based; conditions: time 14.0 day
# [10] = Apparent volume of distribution in Sprague-Dawley rat at 20 mg/kg, po measured upto 12 hrs by UPLC-MS/ESI analysis; assay type: ADME, organism-based; conditions: in vivo
# [11] = Toxicity in C57 mouse implanted with mouse B16-F10 cells assessed as body weight loss at 2.5 mg/kg, ip administered every day for 14 days in the presence of NP19; assay type: organism-based; conditions: in vivo, 336 h, time 14 day
# A2780/Taxol = assay: Antiproliferative activity against paclitaxel resistant human A2780/Taxol cells assessed as inhibition of cell proliferation incubated for 48 hrs by MTT assay; assay type: functional, cell-based
# HepG2 [12] = assay: Antimigratory activity in human HepG2 cells assessed as reduction in recovery area at 0.5 nM incubated for 24 hrs by wound healing assay (reference value: 65.84%); assay type: functional; design: scale not given: the % may be the effect or the level left
# [13] = Antiproliferative activity against paclitaxel resistant human A549/TxR cells assessed as inhibition of cell proliferation incubated for 48 hrs by MTT assay; assay type: functional, cell-based
# [14] = Clearance in Sprague-Dawley rat at 2 mg/kg, iv measured upto 12 hrs by UPLC-MS/ESI analysis; assay type: ADME, organism-based; conditions: in vivo
# [15] = Acute toxicity in C57 mouse assessed as survival rate at 51.2 mg/kg, po administered daily for 14 days relative to control; assay type: organism-based; conditions: in vivo, time 14 day, read-out: Activity
# [16] = Acute toxicity in C57 mouse assessed as lethal dose administered orally daily for 14 days; conditions: in vivo, route po, time 14 day
# A2780S = assay: Antiproliferative activity against parental human A2780S cells assessed as inhibition of cell proliferation incubated for 48 hrs by MTT assay; assay type: functional, cell-based
# HepG2 [17] = assay: Cell cycle arrest in human HepG2 cells assessed as accumulation of cells at […] at 5 nM incubated for 48 hrs by RNaseA/PI staining based flow cytometric analysis (reference value: 23.81%); assay type: functional
# HepG2 [18] = assay: Induction of apoptosis in human HepG2 cells assessed as viable cells at 1 nM incubated for 48 hrs by Annexin V-FITC/PI staining based flow cytometric analysis (reference value: 87.6%); assay type: functional; conditions: read-out: Activity
# [19] = Cmax in Sprague-Dawley rat at 2 mg/kg, iv measured upto 12 hrs by UPLC-MS/ESI analysis; assay type: ADME, organism-based; design: dose 2 mg/kg, time < 12 hrs, route iv; conditions: in vivo
# HepG2 [20] = assay: Cell cycle arrest in human HepG2 cells assessed as accumulation of cells at G1 phase at 5 nM incubated for 48 hrs by RNaseA/PI staining based flow cytometric analysis (reference value: 56.11%); assay type: functional
# Tubulin (Sus scrofa) = Tubulin (Sus scrofa) (UniProt P02554+P02550); assay: (§1) Inhibition of pig brain tubulin polymerization in the presence of GTP by spectrophotometric analysis; assay type: tissue-based
# Tubulin = Tubulin (Sus scrofa, UniProt P02554+P02550); assay: as §1; assay type: tissue-based
# HepG2 [21] = assay: Cell cycle arrest in human HepG2 cells assessed as accumulation of cells at G2 phase at 0.5 nM incubated for 48 hrs by RNaseA/PI staining based flow cytometric analysis (reference value: 17.37%); assay type: functional
# [22] = Resistance index, ratio of IC50 for antiproliferative activity against paclitaxel resistant human A2780/Taxol cells to IC50 for antiproliferative activity against parental human A2780S cells; assay type: functional
# B16-F10 [23] = assay: Antitumor activity against mouse B16-F10 cells implanted in C57 mouse assessed as tumor growth inhibition at 2.5 mg/kg, ip administered every day for 14 days in the presence of NP19 relative to control; assay type: functional; conditions: B16-F10, 336 h, time 14 day, read-out: TGI
# HepG2 [24] = assay: Induction of apoptosis in human HepG2 cells assessed as early apoptotic cells at 0.5 nM incubated for 48 hrs by Annexin V-FITC/PI staining based flow cytometric analysis (reference value: 7.01 %); assay type: functional
# [25] = Oral bioavailability in Sprague-Dawley rat at 20 mg/kg measured upto 12 hrs by UPLC-MS/ESI analysis; assay type: ADME, organism-based; conditions: in vivo
# Tubulin (Homo sapiens) = Tubulin (Homo sapiens) (UniProt P68371+Q9H4B7+P0DPH7+P68366+Q13509+Q71U36+P04350+Q3ZCM7+P07437+P68363+Q9BQE3+Q6PEY2+Q13885+Q9BVA1+Q9BUF5); assay: Disruption of microtubule network in human HepG2 cells cytosol incubated for 12 hrs by DAPI staining based fluorescence microscopic analysis; assay type: subcellular; conditions: dose 0.5-5 nM
# [26] = Toxicity in C57 mouse implanted with mouse B16-F10 cells assessed as pathological changes in heart at 2.5 mg/kg, ip administered every day for 14 days in the presence of NP19 by H&E staining based microscopic analysis; assay type: organism-based; conditions: in vivo, 336 h, time 14 day
# [27] = Apparent volume of distribution in Sprague-Dawley rat at 2 mg/kg, iv measured upto 12 hrs by UPLC-MS/ESI analysis; assay type: ADME, organism-based; conditions: in vivo, read-out: Vz
# HepG2 [28] = assay: Induction of apoptosis in human HepG2 cells assessed as late apoptotic cells at 0.5 nM incubated for 48 hrs by Annexin V-FITC/PI staining based flow cytometric analysis (reference value: 4.96 %); assay type: functional
# HepG2 [29] = assay: Antiproliferative activity against human HepG2 cells assessed as inhibition of cell proliferation incubated for 48 hrs by MTT assay; assay type: functional, cell-based; conditions: HepG2, 48 h
# Sequence of Tubulin (Sus scrofa) (P02550 whole entry, looked up): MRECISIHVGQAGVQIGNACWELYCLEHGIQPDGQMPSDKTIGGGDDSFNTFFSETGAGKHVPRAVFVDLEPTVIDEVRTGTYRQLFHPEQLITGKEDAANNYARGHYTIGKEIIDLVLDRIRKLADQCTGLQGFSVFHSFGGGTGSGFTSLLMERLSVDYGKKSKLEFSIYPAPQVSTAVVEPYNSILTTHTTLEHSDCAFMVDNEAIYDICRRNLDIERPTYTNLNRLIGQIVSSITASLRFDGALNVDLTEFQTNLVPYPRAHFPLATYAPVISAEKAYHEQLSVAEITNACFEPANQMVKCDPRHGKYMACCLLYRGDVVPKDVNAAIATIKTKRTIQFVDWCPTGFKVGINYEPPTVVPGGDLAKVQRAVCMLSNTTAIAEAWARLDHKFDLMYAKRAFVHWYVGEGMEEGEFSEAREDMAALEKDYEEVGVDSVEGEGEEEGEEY
# Sequence of Tubulin (Sus scrofa) (P02554 whole entry, looked up): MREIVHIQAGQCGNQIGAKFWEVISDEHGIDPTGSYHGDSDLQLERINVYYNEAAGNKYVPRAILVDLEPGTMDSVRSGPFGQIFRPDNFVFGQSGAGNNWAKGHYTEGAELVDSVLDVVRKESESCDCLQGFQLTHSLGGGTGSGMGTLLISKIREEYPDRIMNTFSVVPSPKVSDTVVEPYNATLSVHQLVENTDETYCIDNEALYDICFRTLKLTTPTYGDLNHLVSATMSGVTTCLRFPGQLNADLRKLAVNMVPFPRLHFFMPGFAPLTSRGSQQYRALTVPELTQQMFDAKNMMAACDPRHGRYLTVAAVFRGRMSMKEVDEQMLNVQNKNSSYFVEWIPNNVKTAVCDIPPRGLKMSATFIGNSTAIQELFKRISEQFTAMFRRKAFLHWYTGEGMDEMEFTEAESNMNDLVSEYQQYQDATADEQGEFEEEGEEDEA
structure (smiles),measurement,setting,value
COc1cc(-c2nccc3[nH]c(-c4cccc5c4ccn5C)nc23)cc(OC)c1OC,Cmax,[1],879 ng/mL
same,Activity,[2],Non-Toxic
same,AUC(0-inf),[3],3080 ng·h/mL
same,Activity,B16-F10 [4],0.923%
same,Activity,HUVEC,Dose-Dependent Effect
same,Activity,B16-F10 [5],2.35%
same,Tmax,[6],55.2 min
same,survival at 336 h,[7],20%
same,AUC(0-t) at 12 h,[8],3060 ng·h/mL
same,pIC50,HeLa,8.05
same,Activity,B16-F10 [9],Active
same,Vz,[10],16.84 L/kg
same,Activity,[11],Non-Toxic
same,pIC50,A2780/Taxol,8.29
same,Activity,HepG2 [12],42.2%
same,pIC50,[13],7.82
same,clearance,[14],11.2 mL/min/kg
same,survival at 336 h,[15],90%
same,LD50 at 336 h,[16],66.9 mg/kg
same,pIC50,A2780S,8.80
same,Activity,HepG2 [17],22.8%
same,viability at 0.001 µM,HepG2 [18],59.6%
same,Cmax,[19],1730 ng/mL
same,Activity,HepG2 [20],20.19%
same,inhibition,Tubulin (Sus scrofa),Dose-Dependent Effect
same,IC50,Tubulin,1010 nM
same,Activity,HepG2 [21],20.73%
same,Ratio IC50,[22],3.2
same,inhibition in vivo at 2.5 mg/kg,B16-F10 [23],77.8%
same,Activity,HepG2 [24],8.59%
same,bioavailability,[25],11%
same,Activity,Tubulin (Homo sapiens),Dose-Dependent Effect
same,Activity,[26],Non-Toxic
same,Vd,[27],1.08 L/kg
same,Activity,HepG2 [28],6.41%
same,pIC50,HepG2 [29],9.00
